Measured values published in PubChem BioAssay (NCI).
Several values for one entry are separate records, joined by “and”; a condition that tells them apart may be missing. Equal entries are not always repeated.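 In this assay, cells in 96-well plates receive the compound at five concentrations for 48 hours. Endpoints are linearly interpolated between the surrounding concentrations. At the GI50, growth is halved. TGI is the concentration that stops growth completely.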

Legend:
Assay in all cases: NCI anticancer screen, dose series, 48 h
T-47D breast = tested on: T-47D breast
DU-145 prostate = tested on: DU-145 prostate
SK-MEL-5 melanoma = tested on: SK-MEL-5 melanoma
HS 578T breast = tested on: HS 578T breast
HCT-15 colon = tested on: HCT-15 colon
OVCAR-3 ovarian = tested on: OVCAR-3 ovarian
SK-MEL-2 melanoma = tested on: SK-MEL-2 melanoma
CCRF-CEM leukemia = tested on: CCRF-CEM leukemia
SNB-19 CNS = tested on: SNB-19 CNS
MDA-MB-231 breast = tested on: MDA-MB-231 breast

| SMILES | GI50 (T-47D breast) [µM] | TGI (T-47D breast) | GI50 (DU-145 prostate) [µM] | TGI (DU-145 prostate) | GI50 (SK-MEL-5 melanoma) | TGI (SK-MEL-5 melanoma) [µM] | GI50 (HS 578T breast) [µM] | TGI (HS 578T breast) | GI50 (HCT-15 colon) [µM] | TGI (HCT-15 colon) | GI50 (OVCAR-3 ovarian) | TGI (OVCAR-3 ovarian) | GI50 (SK-MEL-2 melanoma) [µM] | TGI (SK-MEL-2 melanoma) | GI50 (CCRF-CEM leukemia) [µM] | TGI (CCRF-CEM leukemia) | GI50 (SNB-19 CNS) [µM] | TGI (SNB-19 CNS) [µM] | GI50 (MDA-MB-231 breast) [µM] | TGI (MDA-MB-231 breast) |
| --- | --- | --- | --- | --- | --- | --- | --- | --- | --- | --- | --- | --- | --- | --- | --- | --- | --- | --- | --- | --- |
| O=c1c(Oc2ccc(F)cc2F)cc2cnc(NC3CCOCC3)nc2n1C1CC1 | 19.3 | > 25 µM | > 25 | > 25 µM | > 25 µM | > 25 | > 16.9 | > 25 µM | > 25 | > 25 µM | > 25 µM | > 25 µM | > 25 | > 25 µM | > 25 | > 25 µM | > 25 | > 25 | > 25 | > 25 µM |
| CCCCCCCCCCCCOC1C(C(COC2OC(C(O)CO)C3OC(C)(C)OC23)OC(=O)Nc2ccccc2)OC2OC(C)(C)OC21 (centres undefined) | 5.02 | 16.6 µM | 10 | 22.8 µM | 8.55 µM | 25.6 | 6.13 | 18.6 µM | 4.5 | 16.1 µM | 6.52 µM | 19.6 µM | 16.3 | 32.4 µM | – | 6.66 µM | 7.35 | 20.3 | 8.7 | 21.1 µM |
| COc1nc(N)nc2nc[nH]c12 | > 779 | 500 µM and > 1000 µM | 720 | 500 µM and > 1000 µM | > 800 µM and 782 µM | > 1000 | 603 | 500 µM and > 1000 µM | > 800 | 500 µM and > 800 µM and > 1000 µM | 744 µM and > 856 µM | 500 µM and 800 µM and > 1000 µM | > 800 | 500 µM and > 800 µM and > 853 µM | 563 | 407 µM and 800 µM and > 920 µM | > 1000 | > 1000 | 641 | 500 µM and > 1000 µM |
| O=C1NC(c2ccccc2Cl)Nc2ccccc21 (centres undefined) | – | > 100 µM | – | > 100 µM | – | > 80.5 | – | 54.7 µM | – | > 100 µM | – | 31.3 µM | – | 48.7 µM | – | > 81.5 µM | – | > 74 | – | > 100 µM |
| C/C(=C\c1csc(C)n1)[C@@H]1C[C@@H]2O[C@]2(C)CCC[C@H](C)[C@H](O)[C@@H](C)C(=O)C(C)(C)[C@@H](O)CC(=O)N1 | 0.000189 | 0.000469 µM | 0.000166 | 0.000254 µM | 0.000137 µM | 0.000337 | 8.61e-05 | 0.000226 µM | 0.000152 | 0.000344 µM | 0.000158 µM | 0.000377 µM | < 1e-05 | < 1e-05 µM | 0.000125 | 0.000203 µM | 0.000347 | 0.000508 | 0.000312 | 0.000479 µM |
| COc1cc2c(cc1C)NC(=O)/C2=C\c1ccc(Oc2ccccc2)cc1 | 15.1 | 48.4 µM | 13.2 | 26 µM | 14.5 µM | 27.9 | 20.7 | 46.9 µM | 12.1 | 24.5 µM | 17.2 µM | 34.3 µM | 17 | 40.9 µM | 8.36 | 27.5 µM | 17.8 | 32.9 | 18.2 | 37.5 µM |
